Results as given in patent US20090099136A1 (PHARMASSET, INC., priority 2007, published 2009).
Where “and” joins values, the source holds several entries; their conditions need not be identical. Identical values can stand only once.

Tests used:
NL43 wild type virus = type: cell-based, HIV; conditions: read-out: EC50 (P4) (WT)

Row | SMILES | EC50 (NL43 wild type virus) | Toxicity (Luciferase, 6d) (P4 CCR5-luc cells)
1 | CCCCCOC(=O)C(C)NP(=O)(OCC1OCC(n2cc(C)c(=O)[nH]c2=O)O1)Oc1ccccc1 (mixture of isomers) [Example 17] | 360 nM | >100
2 | CCCCCCOC(=O)C(C)NP(=O)(OCC1OCC(n2cc(C)c(=O)[nH]c2=O)O1)Oc1ccccc1 (mixture of isomers) [Example 18] | 740 nM and 410 nM | 
3 | Cc1cn(C2COC(COP(=O)(NC(C)C(=O)OCc3ccc(F)cc3)Oc3ccccc3)O2)c(=O)[nH]c1=O (mixture of isomers) [Example 19] |  | >100
4 | CCOC(=O)C(C)NP(=O)(OCC1OCC(n2cc(C)c(=O)[nH]c2=O)O1)Oc1ccc(Cl)cc1 (mixture of isomers) [Example 20] | 270 nM | >100
5 | Cc1cn(C2COC(COP(=O)(NC(C)C(=O)OCc3ccccc3)Oc3ccccc3Cl)O2)c(=O)[nH]c1=O (mixture of isomers) [Example 25] | 260 nM | >100
6 | CCCCOC(=O)C(C)NP(=O)(OCC1OCC(n2cc(C)c(=O)[nH]c2=O)O1)Oc1ccc(Br)cc1 (mixture of isomers) [Example 28] | 1340 nM | >100
7 | COC(=O)C(CC(C)C)NP(=O)(OCC1OCC(n2cc(C)c(=O)[nH]c2=O)O1)Oc1ccccc1 (mixture of isomers) [Example 52] | 960 nM | >100
8 | Cc1cn(C2COC(COP(=O)(NC(C)C(=O)OCc3ccccc3)Oc3ccc(F)cc3)O2)c(=O)[nH]c1=O (mixture of isomers) [Example 67] | 1110 nM | >100
9 | Cc1cn(C2COC(COP(=O)(NC(C)C(=O)OC3CCCCC3)Oc3ccccc3)O2)c(=O)[nH]c1=O (mixture of isomers) [Example 72] | 2120 nM | >100
10 | Cc1cn(C2COC(COP(=O)(NC(C)C(=O)OC3CCCC3)Oc3ccccc3)O2)c(=O)[nH]c1=O (mixture of isomers) [Example 73] | 1030 nM | >100
11 | Cc1cn(C2COC(COP(=O)(NC(C)C(=O)OC3CCC3)Oc3ccc(F)cc3)O2)c(=O)[nH]c1=O (mixture of isomers) [Example 86] | 500 nM | >100
12 | Cc1cn(C2COC(COP(=O)(NC(C)C(=O)OC3CCC3)Oc3ccccc3)O2)c(=O)[nH]c1=O (mixture of isomers) [Example 95] | 450 nM | >100
13 | Cc1cn(C2COC(COP(=O)(NC(C)C(=O)OCC3CC3)Oc3ccccc3)O2)c(=O)[nH]c1=O (mixture of isomers) [Example 96] | 330 nM | >100
14 | Cc1cn(C2COC(COP(=O)(NC(C)C(=O)OCC3CCC3)Oc3ccccc3)O2)c(=O)[nH]c1=O (mixture of isomers) [Example 109] | 710 nM | >100
15 | Cc1cn(C2COC(COP(=O)(NC(CC(C)C)C(=O)OCC3CC3)Oc3ccccc3)O2)c(=O)[nH]c1=O (mixture of isomers) [Example 116] | 570 nM | >100
16 | Cc1cn(C2COC(COP(=O)(NC(C)C(=O)OCc3ccccc3)Oc3ccccc3)O2)c(=O)[nH]c1=O (mixture of isomers) [Example 119] | 1700 nM | >100
